In patent publication US12152038B2, “Vasopressin receptor antagonists and products and methods related thereto” (Neumora Therapeutics, Inc., priority 2017, dated 2024):
Like-named read-outs stand apart in the source and are kept apart here.

How the values were obtained:
[1] = target: T1, human Arginine Vasopressin Receptor V2 (AVPR2) (Homo sapiens, UniProt P30518); assay: Vasopressin V2 receptor antagonist assay (TR-FRET cAMP, 1321N1 cells); format: cell-based
T1 construct: host or cells: 1321N1 (cAMPZen V2 assay ready frozen cells)
Protocol: The purpose of the assay was to determine the inhibitory effect of synthesized compounds on the Vasopressin receptor 2. The assay was performed in commercially available 1321N1 cells expressing the human Arginine Vasopressin Receptor V2 (AVPR2) (Perkin Elmer #ES-363-CF). Arginine Vasopressin (AVP) evokes an increase in intracellular cAMP in these cells which is measured in a TR-FRET assay using a Europium cAMP tracer and ULight labelled antibody reagents contained in a LANCE Ultra cAMP kit (Perkin Elmer #TRF0263). Increases in cAMP in the assay result in a reduction in TR-FRET as the cAMP produced by the stimulated cells competes with the Eu-cAMP tracer for binding sites on the ULight labelled antibody. Test compounds were assessed for their ability to affect the magnitude of the response to AVP, with antagonists showing a concentration-dependent decrease in the AVP-mediated reduction in TR-FRET signal.
cAMPZen V2 assay ready cells were thawed at 37° C. and resuspended directly from frozen in 9 ml growth medium consisting of DMEM supplemented with 10% v/v fetal bovine serum, 1× non-essential amino acids, and 1 mM sodium pyruvate. Cells were spun at 1000 rpm for 3 minutes and the supernatant was carefully removed and discarded. The pellet was resuspended in 5 ml stimulation buffer and the cell density determined using the Vi-Cell automated cell counter. The cell suspension was diluted to a 0.2×10^6/ml suspension ready for plating. To all wells of a white 384-well Optiplate (Perkin Elmer #6007299) 5 μL of cells in stimulation buffer were dispensed (1,000 cells per well). Stimulation buffer consisted of HBSS (+Ca/+Mg) supplemented with 5 mM HEPES, 0.1% BSA stabiliser and 0.5 mM IBMX.
At the start of each assay day the potency of AVP was assessed and an EC80 concentration determined for subsequent compound profiling. Assays were performed by first an addition of 2.5 μl of control or test compound at 4× final concentration in stimulation buffer followed by 2.5 μl of AVP at 4× final concentration in stimulation buffer. After a 1 hour reaction, detection reagents were added by first an addition of 5 μl EU-cAMP tracer, followed by 5 μl ULight-anti-cAMP both diluted as per the manufacturer's instructions. After a one hour incubation, plates were ready to be read (signals then remained stable for up to 24 hours). Changes in time resolved fluorescence were monitored with excitation via a laser (337 nm) measuring both 615 nm and 665 nm emission wavelengths. […] For compound profiling, test compounds were dispensed by the Labcyte Echo (10-point curve, 1:3 dilutions) in a target 0.1 μl volume then diluted 750-fold in stimulation buffer containing 3% DMSO prior to addition to the cells. At the end of the incubation period, 2.5 μl of AVP in stimulation buffer was added at the previously determined EC80 concentration.
In-plate controls for the assay included a Tolvaptan concentration-response curve as the reference V2 antagonist and an AVP concentration-response curve to confirm the reproducibility of the EC80 used for the compound challenge.

MDR1 (P-glycoprotein) = target: T2, MDR1 (P-glycoprotein) (Homo sapiens, UniProt P08183); assay: MDR1-MDCK permeability and efflux assay (Papp, efflux ratio, effective efflux ratio); format: in vitro ADME; settings: dog; for Papp A→B at 1 h, 10 μM: pH 7.4, read-out: Papp AB MDR1
T2 construct: host or cells: MDCK (MDR1-MDCK; wild-type MDCK as comparator)
Method in brief: (§1)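 Bidirectional transport measured over 1 h at 37 °C with 10 μM test compound (0.1% DMSO) in pH 7.4 HEPES-buffered HBSS across MDR1-transfected and wild-type MDCK monolayers, analysed by LC-MS/MS. Efflux ratio is B>A over A>B Papp; effective efflux ratio divides MDR1-MDCK ER by wild-type ER.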

[2] = Wild-type MDCK permeability and efflux assay (Papp, efflux ratio); format: in vitro ADME; settings: dog, pH 7.4, wild-type MDCK cells; for efflux ratio at 1 h, 10 μM: Papp B>A/Papp A>B, read-out: ER WT (Efflux Ratio)
Method in brief: as §1

[3] = MDCK-MDR1, pH 7.4, ER(MDR1-MDCK)/ER(wild-type MDCK), read-out: EER (Effective Efflux Ratio)
[4] = MDCK-MDR1, pH 7.4, Papp B>A/Papp A>B, MDR1-MDCK cells, read-out: ER MDR1 (Efflux Ratio)

T1 sequence (P30518 whole entry): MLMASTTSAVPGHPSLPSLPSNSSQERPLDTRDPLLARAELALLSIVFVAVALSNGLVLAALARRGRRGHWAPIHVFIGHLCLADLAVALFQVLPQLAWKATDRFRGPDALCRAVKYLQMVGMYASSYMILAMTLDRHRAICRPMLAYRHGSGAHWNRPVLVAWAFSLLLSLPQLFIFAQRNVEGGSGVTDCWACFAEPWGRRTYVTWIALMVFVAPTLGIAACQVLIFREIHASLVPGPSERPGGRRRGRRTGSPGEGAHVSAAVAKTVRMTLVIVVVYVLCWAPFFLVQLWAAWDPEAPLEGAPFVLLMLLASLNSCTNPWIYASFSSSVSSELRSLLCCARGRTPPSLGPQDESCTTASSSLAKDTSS
T2 sequence (P08183 whole entry): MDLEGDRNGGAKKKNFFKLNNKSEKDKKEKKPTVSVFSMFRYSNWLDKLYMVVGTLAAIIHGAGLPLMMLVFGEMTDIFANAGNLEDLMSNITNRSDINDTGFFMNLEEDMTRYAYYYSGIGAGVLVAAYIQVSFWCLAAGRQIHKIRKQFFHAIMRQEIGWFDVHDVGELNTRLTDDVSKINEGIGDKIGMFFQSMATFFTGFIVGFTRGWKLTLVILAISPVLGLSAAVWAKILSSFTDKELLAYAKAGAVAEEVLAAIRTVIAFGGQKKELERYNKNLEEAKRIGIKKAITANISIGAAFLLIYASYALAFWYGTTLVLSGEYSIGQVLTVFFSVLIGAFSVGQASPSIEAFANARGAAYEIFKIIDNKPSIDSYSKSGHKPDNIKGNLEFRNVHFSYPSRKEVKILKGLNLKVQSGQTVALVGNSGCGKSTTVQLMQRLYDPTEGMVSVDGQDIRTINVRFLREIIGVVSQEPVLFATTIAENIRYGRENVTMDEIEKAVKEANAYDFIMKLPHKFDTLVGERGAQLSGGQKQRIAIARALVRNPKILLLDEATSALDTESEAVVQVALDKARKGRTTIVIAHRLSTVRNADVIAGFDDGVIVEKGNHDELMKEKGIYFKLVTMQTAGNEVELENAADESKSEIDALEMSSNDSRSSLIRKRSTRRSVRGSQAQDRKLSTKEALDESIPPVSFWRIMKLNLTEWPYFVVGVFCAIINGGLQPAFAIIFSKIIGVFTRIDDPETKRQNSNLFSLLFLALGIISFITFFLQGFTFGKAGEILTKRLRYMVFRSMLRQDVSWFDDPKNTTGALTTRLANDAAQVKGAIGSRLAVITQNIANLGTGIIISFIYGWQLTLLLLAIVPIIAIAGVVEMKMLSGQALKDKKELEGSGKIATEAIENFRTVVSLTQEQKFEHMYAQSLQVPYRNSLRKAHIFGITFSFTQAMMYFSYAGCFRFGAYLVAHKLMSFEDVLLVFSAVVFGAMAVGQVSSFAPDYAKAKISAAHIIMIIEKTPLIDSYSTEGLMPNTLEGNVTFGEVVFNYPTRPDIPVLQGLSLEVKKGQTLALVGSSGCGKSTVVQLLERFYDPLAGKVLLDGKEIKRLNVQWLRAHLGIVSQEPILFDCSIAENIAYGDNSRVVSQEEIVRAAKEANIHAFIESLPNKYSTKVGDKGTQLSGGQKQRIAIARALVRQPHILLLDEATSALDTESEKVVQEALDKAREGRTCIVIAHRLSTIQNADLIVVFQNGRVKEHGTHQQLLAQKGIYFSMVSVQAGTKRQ

SMILES	IC50 [1]	efflux ratio at 1 h, 10 μM (MDR1 (P-glycoprotein); [3])	efflux ratio at 1 h, 10 μM (MDR1 (P-glycoprotein); [4])	Papp A→B at 1 h, 10 μM (MDR1 (P-glycoprotein); MDR1-MDCK cells)	Papp A→B at 1 h, 10 μM [2]	efflux ratio at 1 h, 10 μM [2]
Cc1cncc(N2CC3(CN(C(=O)N4c5ccc(Cl)cc5OCC4C)C3)C2)n1 (stereo not drawn) [21-3]	< 100 nM	1 to 2	1 to 2	> 20 ×10⁻⁶ cm/s	> 20 ×10⁻⁶ cm/s	< 1
CC1COc2cc(Cl)ccc2N1C(=O)N1CC2(C1)CN(c1ccc(F)cn1)C2 (single isomer, unassigned) [1-73-B]	< 100 nM	–	–	–	–	–
CC1COc2cc(Cl)ccc2N1C(=O)N1CC2(C1)CN(c1ncccc1F)C2 (single isomer, unassigned) [1-57-A]	< 100 nM	–	–	–	–	–
N#Cc1cccc(N2CC3(CN(C(=O)N4CCOc5cc(Cl)ccc54)C3)C2)n1 [1-39]	≥ 1000 nM	–	–	–	–	–
CC1COc2cc(F)ccc2N1C(=O)N1CC2(C1)CN(c1ncccc1F)C2 (single isomer, unassigned) [1-67-A]	100 to 500 nM	–	–	–	–	–
CC1COc2cc(Cl)ccc2N1C(=O)N1CC2(C1)CN(c1ncccc1C#N)C2 (stereo not drawn) [21-2]	≥ 1000 nM	1 to 2	1 to 2	> 20 ×10⁻⁶ cm/s	> 20 ×10⁻⁶ cm/s	< 1
O=C(N1CC2(C1)CN(c1cc(F)ccn1)C2)N1CCOc2cc(Cl)ccc21 [1-70]	≥ 1000 nM	< 1	1 to 2	> 20 ×10⁻⁶ cm/s	> 20 ×10⁻⁶ cm/s	1 to 2
O=C(N1CC2(C1)CN(c1cc(F)cc(F)n1)C2)N1CCOc2cc(Cl)ccc21 [1-51]	≥ 1000 nM	–	–	–	–	–
CC1COc2cc(Cl)ccc2N1C(=O)N1CC2(C1)CN(c1noc3ccccc13)C2 (stereo not drawn) [21-1, (6-(benzo[d]isoxazol-3-yl)-2,6-diazaspiro[3.3]heptan-2-yl)(7-chloro-3-methyl-2,3-dihydro-4H-benzo[b][1,4]oxazin-4-yl)methanone]	≥ 1000 nM	2 to 3	1 to 2	7 to 10 ×10⁻⁶ cm/s	10 to 20 ×10⁻⁶ cm/s	< 1
CC1COc2cc(Cl)ccc2N1C(=O)N1CC2(C1)CN(c1cnccn1)C2 (single isomer, unassigned) [1-58-B]	< 100 nM	1 to 2	1 to 2	> 20 ×10⁻⁶ cm/s	> 20 ×10⁻⁶ cm/s	1 to 2
O=C(N1CC2(C1)CN(c1ccc(F)c(F)n1)C2)N1CCOc2cc(Cl)ccc21 [1-49]	≥ 1000 nM	–	–	–	–	–
CCc1cnc(N2CC3(CN(C(=O)N4c5ccc(Cl)cc5OCC4C)C3)C2)nc1 (stereo not drawn) [21-9]	100 to 500 nM	–	–	–	–	–
CC1COc2cc(Cl)ccc2N1C(=O)N1CC2(C1)CN(c1ccccn1)C2 (stereo not drawn) [1-60]	100 to 500 nM	< 1	< 1	> 20 ×10⁻⁶ cm/s	> 20 ×10⁻⁶ cm/s	< 1
CCC1COc2cc(Cl)ccc2N1C(=O)N1CC2(C1)CN(c1ccc(F)cn1)C2 (single isomer, unassigned) [1-55-B]	< 100 nM	–	–	–	–	–
CC1COc2cc(Cl)ccc2N1C(=O)N1CC2(C1)CN(c1ncncc1F)C2 (stereo not drawn) [21-5]	100 to 500 nM	< 1	1 to 2	> 20 ×10⁻⁶ cm/s	> 20 ×10⁻⁶ cm/s	1 to 2
Cc1nc(N2CC3(CN(C(=O)N4CCOc5cc(Cl)ccc54)C3)C2)ccc1F [1-30]	500 to 1000 nM	–	–	–	–	–
CC1COc2cc(F)ccc2N1C(=O)N1CC2(C1)CN(c1cnccn1)C2 (single isomer, unassigned) [1-65-B]	≥ 1000 nM	< 1	1 to 2	> 20 ×10⁻⁶ cm/s	> 20 ×10⁻⁶ cm/s	1 to 2
CC1COc2cc(Cl)ccc2N1C(=O)N1CC2(C1)CN(c1nn(C)c3ncccc13)C2 (single isomer, unassigned) [20-15-B]	< 100 nM	1 to 2	< 1	> 20 ×10⁻⁶ cm/s	> 20 ×10⁻⁶ cm/s	< 1
Cc1cccc(N2CC3(CN(C(=O)N4CCOc5cc(Cl)ccc54)C3)C2)n1 [1-3]	100 to 500 nM	–	–	–	–	–
CC1COc2cc(Cl)ccc2N1C(=O)N1CC2(C1)CN(c1ccc(F)cn1)C2 (single isomer, unassigned) [1-73-A]	≥ 1000 nM	–	–	–	–	–
O=C(N1CC2(C1)CN(c1cccc(F)n1)C2)N1CCOc2cc(Cl)ccc21 [1-69]	≥ 1000 nM	–	–	–	–	–
O=C(N1CC2(C1)CN(c1ccc(F)cn1)C2)N1CCC(O)c2cc(Cl)ccc21 (single isomer, unassigned) [13-1-B]	≥ 1000 nM	–	–	–	–	–
CC1COc2cc(F)ccc2N1C(=O)N1CC2(C1)CN(c1ccccn1)C2 (single isomer, unassigned) [1-66-B]	500 to 1000 nM	–	–	–	–	–
CC1COc2cc(Cl)ccc2N1C(=O)N1CC2(C1)CN(c1cc(=O)n(C)cn1)C2 (single isomer, unassigned) [20-14-B]	500 to 1000 nM	–	–	–	–	–
Cc1cnc(N2CC3(CN(C(=O)N4CCOc5cc(Cl)ccc54)C3)C2)cn1 [1-20]	≥ 1000 nM	–	–	–	–	–
CC1COc2cc(F)ccc2N1C(=O)N1CC2(C1)CN(c1ncccc1F)C2 (stereo not drawn) [1-67]	≥ 1000 nM	–	–	–	–	–

The next lines start with the values.

IC50 [1]	efflux ratio at 1 h, 10 μM (MDR1 (P-glycoprotein); [3])	efflux ratio at 1 h, 10 μM (MDR1 (P-glycoprotein); [4])	Papp A→B at 1 h, 10 μM (MDR1 (P-glycoprotein); MDR1-MDCK cells)	Papp A→B at 1 h, 10 μM [2]	efflux ratio at 1 h, 10 μM [2]	SMILES
≥ 1000 nM	1 to 2	1 to 2	> 20 ×10⁻⁶ cm/s	> 20 ×10⁻⁶ cm/s	< 1	O=C(N1CC2(C1)CN(c1ccc(F)cn1)C2)N1CCOc2cc(F)ccc21 [1-64]
–	1 to 2	< 1	> 20 ×10⁻⁶ cm/s	> 20 ×10⁻⁶ cm/s	< 1	O=C(N1CC2(C1)CN(c1cccnc1)C2)N1CCOc2cc(Cl)ccc21 [1-72]
100 to 500 nM	1 to 2	1 to 2	> 20 ×10⁻⁶ cm/s	> 20 ×10⁻⁶ cm/s	< 1	COc1ccc2c(c1)OCC(C)N2C(=O)N1CC2(C1)CN(c1ccc(F)cn1)C2 (single isomer, unassigned) [1-59-B]
≥ 1000 nM	–	–	–	–	–	Cc1cc(F)nc(N2CC3(CN(C(=O)N4CCOc5cc(Cl)ccc54)C3)C2)c1 [1-45]
≥ 1000 nM	–	–	–	–	–	N#Cc1ccnc(N2CC3(CN(C(=O)N4CCOc5cc(Cl)ccc54)C3)C2)c1 [1-53]
≥ 1000 nM	2 to 3	< 1	> 20 ×10⁻⁶ cm/s	> 20 ×10⁻⁶ cm/s	< 1	CC1COc2cc(Cl)ccc2N1C(=O)N1CC2(C1)CN(c1ccncn1)C2 (stereo not drawn) [21-6]
500 to 1000 nM	–	–	–	–	–	Cc1cc(N2CC3(CN(C(=O)N4c5ccc(Cl)cc5OCC4C)C3)C2)ncn1 (stereo not drawn) [21-11]
≥ 1000 nM	–	–	–	–	–	COc1ccc(N2CC3(CN(C(=O)N4CCOc5cc(Cl)ccc54)C3)C2)nc1 [1-68]
≥ 1000 nM	< 1	< 1	> 20 ×10⁻⁶ cm/s	> 20 ×10⁻⁶ cm/s	< 1	O=C(N1CC2(C1)CN(c1cnc(F)cn1)C2)N1CCOc2cc(Cl)ccc21 [1-18]
≥ 1000 nM	1 to 2	1 to 2	> 20 ×10⁻⁶ cm/s	> 20 ×10⁻⁶ cm/s	< 1	Cc1cncc(N2CC3(CN(C(=O)N4CCOc5cc(Cl)ccc54)C3)C2)n1 [1-22]
≥ 1000 nM	–	–	–	–	–	COc1nccnc1N1CC2(CN(C(=O)N3CCOc4cc(Cl)ccc43)C2)C1 [1-43]
